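Each compound was tested at five concentrations against cells in 96-well plates for 48 hours. Here, GI50 denotes the concentration required for 50% inhibition of growth. The concentration for full growth arrest is given as TGI.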
What was measured:
Test in all cases: NCI tumour cell line growth inhibition, 48 h
[1] = tested on: LXFL 529 NSCLC
[2] = tested on: DLD-1 colon
[3] = tested on: SNB-78 CNS
[4] = tested on: HOP-18 NSCLC
[5] = tested on: M19-MEL melanoma
[6] = tested on: DMS 273 small cell lung
[7] = tested on: MDA-N
[8] = tested on: RXF-631 renal
[9] = tested on: XF 498 CNS
[10] = tested on: P388 leukemia
[11] = tested on: SN12K1 renal

Compound `CC(C)(C)C([O-])=C1C(=O)c2ccccc2C1=O.CC(C)(C)C([O-])=C1C(=O)c2ccccc2C1=O.CC[O-].CC[O-].[Ti+4]` has a GI50 [1] of 39.9 µM, a TGI [1] greater than 100 µM and a GI50 [2] of 46.9 µM. It also gave a TGI [2] greater than 100 µM, a GI50 [3] of 28.4 µM and a TGI [3] of 93.8 µM. The GI50 [4] was 18.2 µM, the TGI [4] was 83.3 µM and the GI50 [5] was 31.5 µM. It also gave a TGI [5] greater than 100 µM, a GI50 [6] of 31.2 µM and a TGI [6] greater than 100 µM.
`N#C/C(=C(\O)C(=O)O)c1ccc(-c2cccc3ccccc23)cc1` was tested, and the TGI [7] was greater than 100 µM.
For `CC(O)C(NC(=O)C(CS)NC(=O)C(CO)NC(=O)C(CCCCN)NC(=O)C(Cc1c[nH]c2ccccc12)NC(=O)C(Cc1ccc(O)cc1)NC(=O)C(CS)NC(=O)C(N)Cc1ccccc1)C(N)=O` (configuration not stated), the TGI [8] was 43.7 µM, the TGI [2] was 59.7 µM and the TGI [3] was 96 µM. It also gave a TGI [4] of 46.6 µM, a TGI [5] of 70.9 µM and a TGI [7] greater than 25 µM. It also gave a TGI [6] of 49.4 µM and a TGI [9] of 53.8 µM.
Work on `CCc1cccc(C)c1NC(=O)CC1Sc2ccccc2NC1=O` (configuration not stated) yielded a TGI [8] greater than 100 µM, a TGI [1] greater than 100 µM and a TGI [2] greater than 100 µM. It also gave a TGI [3] greater than 100 µM, a TGI [4] greater than 100 µM and a TGI [5] greater than 100 µM. It also gave a TGI [6] greater than 100 µM and a TGI [9] greater than 100 µM.
For `Cc1c2ncccc2c(C)c2c1[nH]c1ccccc12`, the TGI [1] was 24.8 µM, the TGI [2] was 23.2 µM and the TGI [3] was 36 µM. For the same compound, the TGI [4] was 27.3 µM, the TGI [5] was 26.1 µM and the TGI [6] was 19 µM. For the same compound, the TGI [9] was 25.3 µM.
`CC(=O)O/C(C)=C\C(=O)O/N=C(\N)c1ccc(C)cc1` showed a TGI [8] of 61.1 µM, a TGI [1] of 59.9 µM and a TGI [2] of 50.9 µM. For the same compound, the TGI [3] was 70.9 µM, the TGI [4] was 98.6 µM and the TGI [6] was greater than 100 µM. For the same compound, the TGI [9] was greater than 100 µM.
Compound `C=CCN(N=O)C(=O)N(CCC)CCCC(NC(C)=O)C(=O)NCc1ccccc1` (configuration not stated) has a TGI [8] greater than 100 µM, a TGI [1] greater than 100 µM and a TGI [4] greater than 100 µM. It also gave a TGI [5] greater than 100 µM, a TGI [6] greater than 100 µM and a TGI [9] greater than 100 µM.
`CC[C@@]1(OC(=O)CCC(=O)O)C(=O)OCc2c1cc1n(c2=O)Cc2cc3ccccc3nc2-1` gave a TGI [8] of 17.6 µM, a TGI [1] greater than 45.4 µM and a TGI [2] greater than 100 µM. For the same compound, the TGI [3] was greater than 100 µM, the TGI [4] was greater than 100 µM and the TGI [5] was 1.69 µM. For the same compound, the TGI [7] was 5.51 µM, the TGI [6] was 0.676 µM and the TGI [9] was 5.38 µM.
Compound `Cc1ccc(C)c(NC(=O)/C(=N\NC(N)=S)C(C#N)c2ccccc2)c1` (configuration not stated) has a TGI [1] greater than 100 µM, a TGI [2] greater than 100 µM and a TGI [4] greater than 100 µM. For the same compound, the TGI [5] was greater than 100 µM, the TGI [6] was greater than 100 µM and the TGI [9] was greater than 100 µM.
For `COc1cc2ccc3c4cc(OC)c(OCc5ccccc5)cc4cnc3c2cc1OC`, the TGI [1] was greater than 100 µM, the TGI [2] was greater than 100 µM and the TGI [3] was greater than 100 µM. For the same compound, the TGI [5] was greater than 100 µM and the TGI [9] was greater than 100 µM.
With `CCCCCCCCCCCCC(SCCNC(=O)CCNC(=O)C(O)C(C)(C)COP(=O)(O)OP(=O)(O)OCC1OC(n2cnc3c(N)ncnc32)C(O)C1OP(=O)(O)O)C(=O)NCC(N)=O` (configuration not stated) the TGI [8] was greater than 100 µM, the TGI [1] was greater than 100 µM and the TGI [2] was greater than 100 µM. It also gave a TGI [4] greater than 100 µM, a TGI [5] greater than 100 µM and a TGI [6] greater than 100 µM.
Compound `Cc1ccc(S(=O)(=O)ON/N=C2/C3OC3[C@@H]3CCCC[C@H]23)cc1` (some centres not stated) has a TGI [1] greater than 100 µM, a TGI [2] greater than 100 µM and a TGI [4] greater than 100 µM. For the same compound, the TGI [5] was greater than 100 µM, the TGI [6] was greater than 100 µM and the TGI [9] was greater than 100 µM.
Compound `Cc1c(C(=O)CC(=O)C(=O)NC2C3CC4CC(C3)CC2C4)[n+](=O)c2ccccc2n1[O-]` (configuration not stated) has a TGI [8] greater than 100 µM, a TGI [1] greater than 100 µM and a TGI [3] greater than 100 µM. It also gave a TGI [4] greater than 100 µM, a TGI [5] greater than 100 µM and a TGI [6] greater than 100 µM. It also gave a TGI [9] greater than 100 µM.
`O=C1/C(=C\c2cccs2)Oc2ccccc21` showed a TGI [7] greater than 100 µM.
In the case of `c1ccc(COc2ccc3[nH]c4c(ncc5[nH]c6ccccc6c54)c3c2)cc1`, the TGI [1] is reported as 29.5 µM, the TGI [2] is reported as 17.7 µM and the TGI [3] is reported as 40 µM. For the same compound, the TGI [4] was 26.1 µM, the TGI [6] was 30.4 µM and the TGI [9] was 26.6 µM.
`COc1ccc([N+](=O)[O-])c2c(NCC(O)CO)ccnc12` (configuration not stated) was tested, and the TGI [7] was greater than 100 µM.
`O=C(O)c1nnsc1COCc1ccccc1` was tested, and the TGI [7] was greater than 100 µM.
`c1cc(-c2sc(-c3ccncc3)c(-c3ccncc3)c2-c2ccncc2)ccn1` was tested, and the TGI [7] was 29 µM.
For `O=C(N=Nc1c(O)[nH]c2ccccc12)c1ccccc1O`, the TGI [1] was greater than 100 µM, the TGI [2] was greater than 100 µM and the TGI [3] was greater than 100 µM. It also gave a TGI [4] greater than 100 µM and a TGI [5] greater than 100 µM.
`COc1ccc2c(C3(O)CCNCC3)c[nH]c2c1` gave a TGI [8] greater than 100 µM, a TGI [1] greater than 100 µM and a TGI [2] greater than 100 µM. For the same compound, the TGI [4] was greater than 100 µM, the TGI [5] was greater than 100 µM and the TGI [6] was greater than 100 µM.
`O=c1oc2c3ccc4ccccc4c3n(Cc3nc4ccccc4[nH]3)c2c2ccccc12` showed a TGI [1] greater than 100 µM, a TGI [2] greater than 100 µM and a TGI [3] greater than 100 µM. It also gave a TGI [4] greater than 100 µM and a TGI [5] greater than 100 µM.
With `O=C(O)C(Cc1ccc(O)c([N+](=O)[O-])c1)N1C(=O)c2ccccc2C1=O` (configuration not stated) the TGI [7] was greater than 100 µM.
Compound `c1c[nH]c(Cc2ncc(Cc3cnc[nH]3)[nH]2)n1` has a TGI [1] greater than 100 µM, a TGI [2] greater than 100 µM and a TGI [4] greater than 100 µM. It also gave a TGI [5] of 55.8 µM, a TGI [6] of 67.8 µM and a TGI [9] greater than 100 µM.
`CC(C)(C)N=CN1CCC(C(c2ccccc2)c2ccccc2)CC1` was tested, and the TGI [2] was greater than 100 µM, the TGI [3] was greater than 100 µM and the TGI [4] was greater than 100 µM. It also gave a TGI [5] greater than 100 µM, a TGI [6] greater than 100 µM and a TGI [9] greater than 100 µM.
Work on `CCCCS(=N)(=O)CC[C@H](N)C(=O)O` (some centres not stated) yielded a TGI [10] of 5 mM, a TGI [2] greater than 5000 µM and a TGI [3] greater than 5000 µM. The TGI [4] was greater than 5000 µM, the TGI [5] was greater than 5000 µM and the TGI [11] was 3.75 mM. It also gave a GI50 [7] greater than 5 mM, a TGI [7] greater than 10000 µM and a TGI [6] greater than 5000 µM. For the same compound, the TGI [9] was 604 µM.
